In US12240862B2, “Inhibitors of peptidylarginine deiminases” (Gilead Sciences, Inc., priority 2020, dated 2025):

These molecules were tested against T1, human PAD4 (Homo sapiens, UniProt Q9UM07) (assay: In vitro PAD4 BAEE biochemical assay). Details: human PAD4, BAEE substrate; 5 nM PAD4, 2 mM calcium chloride, 3 mM BAEE; geometric mean of multiple experiments.
T1 construct: human PAD4 (NM_012387), A2P663, was PCR amplified; His-SUMO (N, cleaved yes); made in house; host or cells: E. coli BL21(DE3)
T1 sequence (Q9UM07 2-663): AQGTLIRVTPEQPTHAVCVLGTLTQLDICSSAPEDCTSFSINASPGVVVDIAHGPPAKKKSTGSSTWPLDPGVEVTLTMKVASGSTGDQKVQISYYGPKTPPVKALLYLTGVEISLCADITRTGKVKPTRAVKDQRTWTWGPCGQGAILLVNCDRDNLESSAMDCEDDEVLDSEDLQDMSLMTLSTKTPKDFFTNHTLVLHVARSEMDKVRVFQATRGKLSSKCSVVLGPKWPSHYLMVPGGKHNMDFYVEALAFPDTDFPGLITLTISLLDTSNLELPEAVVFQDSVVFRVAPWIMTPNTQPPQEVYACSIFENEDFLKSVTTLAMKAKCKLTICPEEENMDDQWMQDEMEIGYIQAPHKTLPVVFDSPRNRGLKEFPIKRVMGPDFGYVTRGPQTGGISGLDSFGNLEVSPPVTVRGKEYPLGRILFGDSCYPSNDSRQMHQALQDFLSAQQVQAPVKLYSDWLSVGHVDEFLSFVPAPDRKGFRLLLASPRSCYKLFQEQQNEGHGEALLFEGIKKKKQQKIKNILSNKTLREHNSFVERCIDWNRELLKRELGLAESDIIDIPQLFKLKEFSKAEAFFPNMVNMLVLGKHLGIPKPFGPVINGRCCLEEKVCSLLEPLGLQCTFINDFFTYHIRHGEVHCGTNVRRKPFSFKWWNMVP
Outline: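 Ammonia generated from BAEE serves as the readout, measured by o-phthalaldehyde after EDTA termination. Final conditions: 5 nM human PAD4 (SUMO tag cleaved), 2 mM CaCl2, 3 mM BAEE, pH 7.6 MOPS buffer, 25 °C for 2 h following a 30-min compound preincubation.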
`CCc1ccc2cc(-c3nc4cc(C(=O)N5CC[C@H]6OCCN[C@H]6C5)cc(OC)n4c3C)n(CC3CC3)c2n1` [Example 591, [(4~{a}~{S},8~{a}~{R})-2,3,4,4~{a},5,7,8,8~{a}-octahydropyrido[4,3-b] [1,4]oxazin-6-yl]-[2-[1-(cyclopropylmethyl)-6-ethylpyrrolo[2,3-b]pyridin-2-yl]-5-methoxy-3-methylimidazo[1,2-a]pyridin-7-yl]methanone] was tested, and the IC50 was 936 nM.
`CCc1ccc2cc(-c3nc4cc(C(=O)N5CCC6(CC6)[C@@H](N)C5)cc(OC)n4c3C)n(CC3CC3)c2n1` [Example 592, [(8~{R})-8-amino-6-azaspiro[2.5]octan-6-yl]-[2-[1-(cyclopropylmethyl)-6-ethylpyrrolo[2,3-b]pyridin-2-yl]-5-methoxy-3-methylimidazo[1,2-a]pyridin-7-yl]methanone] gave an IC50 of 9000 nM.
In the case of `CCc1ccc2cc(-c3nc4cc(C(=O)N5CC6(N)CCC5CC6)cc(OC)n4c3C)n(CC3CC3)c2n1` [Example 593, (4-amino-2-azabicyclo[2.2.2]octan-2-yl)-[2-[1-(cyclopropylmethyl)-6-ethylpyrrolo[2,3-b]pyridin-2-yl]-5-methoxy-3-methylimidazo[1,2-a]pyridin-7-yl]methanone], the IC50 is reported as 1900 nM.
`CCc1ccc2cc(-c3nc4cc(C(=O)N5CC6(CCCNC6)C5)cc(OC)n4c3C)n(CC3CC3)c2n1` [Example 594, [2-[1-(cyclopropylmethyl)-6-ethylpyrrolo[2,3-b]pyridin-2-yl]-5-methoxy-3-methylimidazo[1,2-a]pyridin-7-yl]-(2,8-diazaspiro[3.5]nonan-2-yl) methanone] gave an IC50 of 1700 nM.
`CCc1ccc2cc(-c3nc4cc(C(=O)N5CC6(CNCCO6)C5)cc(OC)n4c3C)n(CC3CC3)c2n1` [Example 595, [2-[1-(cyclopropylmethyl)-6-ethylpyrrolo[2,3-b]pyridin-2-yl]-5-methoxy-3-methylimidazo[1,2-a]pyridin-7-yl]-(5-oxa-2,8-diazaspiro[3.5]nonan-2-yl) methanone] showed an IC50 of 31500 nM.
`COc1cc(C(=O)N2CCC[C@@H](N)C2)cc2nc(-c3cc4ccc(C(C)(F)F)nc4n3CC3CC3)c(C)n12` [Example 596, [(3~{R})-3-aminopiperidin-1-yl]-[2-[1-(cyclopropylmethyl)-6-(1,1-difluoroethyl)pyrrolo [2,3-b]pyridin-2-yl]-5-methoxy-3-methylimidazo [1,2-a]pyridin-7-yl] methanone] was tested, and the IC50 was 997 nM.
In the case of `CCc1ccc2cc(-c3nc4cc(C(=O)N5CCC[C@@H](N)C5)ccn4c3C3CC3)n(CC3CC3)c2n1` [Example 597, [(3~{R})-3-aminopiperidin-1-yl]-[3-cyclopropyl-2-[1-(cyclopropylmethyl)-6-ethylpyrrolo[2,3-b]pyridin-2-yl]imidazo[1,2-a]pyridin-7-yl]methanone], the IC50 is reported as 299 nM.
With `CCOC(=O)CC(C)c1ccc2cc(-c3nc4cc(C(=O)N5CCC[C@@H](N)C5)cc(OC)n4c3C)n(CC3CC3)c2n1` (some centres unmarked) [Example 598, ethyl 3-[2-[7-[(3~{R})-3-aminopiperidine-1-carbonyl]-5-methoxy-3-methylimidazo [1,2-a]pyridin-2-yl]-1-(cyclopropylmethyl)pyrrolo [2,3-b]pyridin-6-yl] butanoate] the IC50 was 312 nM.
In the case of `COc1cc(C(=O)N2CCC[C@@H](N)C2)cc2nc(-c3cc4ccc(Cl)nc4n3CC3CC3)c(C)n12` [Example 599, [(3~{R})-3-aminopiperidin-1-yl]-[2-[6-chloro-1-(cyclopropylmethyl)pyrrolo [2,3-b]pyridin-2-yl]-5-methoxy-3-methylimidazo[1,2-a]pyridin-7-yl]methanone], the IC50 is reported as 1910 nM.
`COc1cc(C(=O)N2CCC[C@@H](N)C2)cc2nc(-c3cc4ccc(-c5ccnc6c5CC(=O)N6)nc4n3CC3CC3)c(C)n12` [Example 600, 4-[2-[7-[(3~{R})-3-aminopiperidine-1-carbonyl]-5-methoxy-3-methylimidazo[1,2-a]pyridin-2-yl]-1-(cyclopropylmethyl)pyrrolo[2,3-b]pyridin-6-yl]-1,3-dihydropyrrolo[2,3-b] pyridin-2-one] showed an IC50 of 666 nM.
`COc1cc(C(=O)N2CCC[C@@H](N)C2)cc2nc(-c3cc4ccc(-c5cccc6c5CN(C)C6=O)nc4n3CC3CC3)c(C)n12` [Example 601, 4-[2-[7-[(3~{R})-3-aminopiperidine-1-carbonyl]-5-methoxy-3-methylimidazo[1,2-a]pyridin-2-yl]-1-(cyclopropylmethyl)pyrrolo[2,3-b]pyridin-6-yl]-2-methyl-3~{H}-isoindol-1-one] showed an IC50 of 6880 nM.
`COc1cc(C(=O)N2CCC[C@@H](N)C2)cc2nc(-c3cc4ccc(-c5cccc6c5CNC6=O)nc4n3CC3CC3)c(C)n12` [Example 602, 4-[2-[7-[(3~{R})-3-aminopiperidine-1-carbonyl]-5-methoxy-3-methylimidazo[1,2-a]pyridin-2-yl]-1-(cyclopropylmethyl)pyrrolo[2,3-b]pyridin-6-yl]-2,3-dihydroisoindol-1-one] was tested, and the IC50 was 2150 nM.
`COc1cc(C(=O)N2CCC[C@@H](N)C2)cc2nc(-c3cc4ccc(-c5cccnc5C)nc4n3CC3CC3)c(C)n12` [Example 604, [(3~{R})-3-aminopiperidin-1-yl]-[2-[1-(cyclopropylmethyl)-6-(2-methylpyridin-3-yl)pyrrolo[2,3-b]pyridin-2-yl]-5-methoxy-3-methylimidazo[1,2-a]pyridin-7-yl]methanone] showed an IC50 of 427 nM.
With `COc1cc(C(=O)N2CCC[C@@H](N)C2)cc2nc(-c3cc4ccc(-c5ccc(N)nc5C)nc4n3CC3CC3)c(C)n12` [Example 605, [2-[6-(6-amino-2-methylpyridin-3-yl)-1-(cyclopropylmethyl)pyrrolo[2,3-b]pyridin-2-yl]-5-methoxy-3-methylimidazo[1,2-a]pyridin-7-yl]-[(3~{R})-3-aminopiperidin-1-yl]methanone] the IC50 was 518 nM.
`COc1cc(C(=O)N2CCC[C@@H](N)C2)cc2nc(-c3cc4ccc(-c5cccnc5N5CCOCC5)nc4n3CC3CC3)c(C)n12` [Example 606, [(3~{R})-3-aminopiperidin-1-yl]-[2-[1-(cyclopropylmethyl)-6-(2-morpholin-4-ylpyridin-3-yl)pyrrolo[2,3-b]pyridin-2-yl]-5-methoxy-3-methylimidazo[1,2-a]pyridin-7-yl]methanone] was tested, and the IC50 was 373 nM.
For `COc1cc(C(=O)N2CCC[C@@H](N)C2)cc2nc(-c3cc4ccc(-c5cccnc5-c5ccccc5)nc4n3CC3CC3)c(C)n12` [Example 607, [(3~{R})-3-aminopiperidin-1-yl]-[2-[1-(cyclopropylmethyl)-6-(2-phenylpyridin-3-yl)pyrrolo [2,3-b]pyridin-2-yl]-5-methoxy-3-methylimidazo[1,2-a]pyridin-7-yl]methanone], the IC50 was 345 nM.
Work on `COc1cc(C(=O)N2CCC[C@@H](N)C2)cc2nc(-c3cc4ccc(C(C)C)nc4n3CC3CC3)c(C)n12` [Example 608, [(3~{R})-3-aminopiperidin-1-yl]-[2-[1-(cyclopropylmethyl)-6-propan-2-ylpyrrolo [2,3-b]pyridin-2-yl]-5-methoxy-3-methylimidazo [1,2-a]pyridin-7-yl] methanone] yielded an IC50 of 544 nM.
`COc1cc(C(=O)N2C[C@H](N)CC[C@@H]2C)cc2nc(-c3cc4ccc(-c5c(C)nn(CC(N)=O)c5C)nc4n3CC3CC3)c(C)n12` [Example 609, 2-[4-[2-[7-[(2~{S}, 5~{R})-5-amino-2-methylpiperidine-1-carbonyl]-5-methoxy-3-methylimidazo [1,2-a]pyridin-2-yl]-1-(cyclopropylmethyl)pyrrolo [2,3-b]pyridin-6-yl]-3,5-dimethylpyrazol-1-yl]acetamide] showed an IC50 of 711 nM.
Work on `COc1cc(C(=O)N2C[C@H](N)CC[C@@H]2C)cc2nc(-c3cc4ccc(C#N)nc4n3CC3CC3)c(C)n12` [Example 610, 2-[7-[(2~{S},5~{R})-5-amino-2-methylpiperidine-1-carbonyl]-5-methoxy-3-methylimidazo[1,2-a]pyridin-2-yl]-1-(cyclopropylmethyl) pyrrolo[2,3-b] pyridine-6-carbonitrile] yielded an IC50 of 4630 nM.
`COc1cc(C(=O)N2C[C@H](N)CC[C@@H]2C)cc2nc(-c3cc4ccc(-c5c(C)n[nH]c5C)nc4n3CC3CC3)c(C)n12` [Example 611, [(2~{S},5~{R})-5-amino-2-methylpiperidin-1-yl]-[2-[1-(cyclopropylmethyl)-6-(3,5-dimethyl-1~{H}-pyrazol-4-yl)pyrrolo[2,3-b]pyridin-2-yl]-5-methoxy-3-methylimidazo[1,2-a]pyridin-7-yl]methanone] gave an IC50 of 726 nM.
Molecule `COc1cc(C(=O)N2C[C@H](N)CC[C@@H]2C)cc2nc(-c3cc4ccc(C5CC5)nc4n3CC3CC3)c(C)n12` [Example 612, [(2~{S},5~{R})-5-amino-2-methylpiperidin-1-yl]-[2-[6-cyclopropyl-1-(cyclopropylmethyl)pyrrolo [2,3-b]pyridin-2-yl]-5-methoxy-3-methylimidazo[1,2-a]pyridin-7-yl]methanone] has an IC50 of 743 nM.
Work on `CCc1ccc2cc(-c3nc4cc(C(=O)N5CCC[C@@H](N)C5)cc(OC)n4c3C)n(CC3CC3)c2n1` [Example 613, [(3~{R})-3-aminopiperidin-1-yl]-[2-[1-(cyclopropylmethyl)-6-ethylpyrrolo[2,3-b]pyridin-2-yl]-5-methoxy-3-methylimidazo [1,2-a]pyridin-7-yl] methanone] yielded an IC50 of 302 nM.
`COc1cc(C(=O)N2C[C@H](N)CCN2C)cc2nc(-c3cc4ccc([C@@H](C)NC(=O)c5ccccc5)nc4n3CC3CC3)c(C)n12` [Example 614, N—((R)-1-(2-(7-((R)-5-amino-2-methylhexahydropyridazine-1-carbonyl)-5-methoxy-3-methylimidazo[1,2-a]pyridin-2-yl)-1-(cyclopropylmethyl)-1H-pyrrolo[2,3-b]pyridin-6-yl)ethyl)benzamide] showed an IC50 of 90.2 nM.
